From article PMC8351955, “Targeting Mycobacterium tuberculosis response to environmental cues for the development of effective antitubercular drugs” (PLoS Biology, 2021)
Read-outs that look alike come from different tables or passages of the source.

Tests used:
Experiment in all cases: microbe, parasite or virus in culture
Assay type in all cases: cell-based, Mycobacterium tuberculosis
[1] = system: CDC1551(rv2390c′::GFP) reporter Mtb strain, response to high [Cl−]; conditions: Mycobacterium tuberculosis, 144 h; for activity at 20 µM: read-out: rv2390c'::GFP validation assay NPA% at 20 µM compound
[2] = system: Mtb growth in J774 murine macrophage-like cells; conditions: for NPI (Mtb growth in J774 cells), average: Fig 1F; for inhibition at 10 µM / inhibition at 20 µM: Mycobacterium tuberculosis, J774, 144 h; for inhibition at 10 µM: read-out: J774 tertiary assay % inhibition compared to Rif at 10 µM compound; for inhibition at 20 µM: read-out: J774 tertiary assay % inhibition compared to Rif at 20 µM compound
[3] = system: CDC1551(rv1405c′::GFP) reporter Mtb strain; conditions: Mycobacterium tuberculosis; for activity at 10 µM: read-out: rv1405c'::GFP secondary assay NPA% at 10 µM compound; for activity at 20 µM: read-out: rv1405c'::GFP secondary assay NPA% at 20 µM compound
[4] = pH 6.4, […], DMSO positive control = 100%, read-out: Primary screen rv2390c'::GFP NPA%
[5] = 10 µM, pH 6.4, 250 mM NaCl, 6 days, read-out: rv2390c'::GFP validation assay NPA% at 10 µM compound
[6] = 0.078125 µM, 5 µM rifampicin = 100% inhibition

## O=C(c1cnn2ccccc12)N1CCCC(CCc2cccc(C(F)(F)F)c2)C1 (centres unmarked) [C5 analog, FC(F)(F)C1=CC=CC(CCC2CCCN(C2)C(=O)C2=C3C=CC=CN3N=C2)=C1]
[1]; [4]
  activity at 10 µM: 167%
[1]; [5]
  activity at 10 µM: 112 ± 12%
[1]; pH 6.4, 250 mM NaCl, 6 days
  activity at 20 µM: 156 ± 9.9%
[2]; [6]
  NPI (Mtb growth in J774 cells), average: -4.805%
[2]; 0.15625 µM
  NPI (Mtb growth in J774 cells), average: -8.165%
[2]; 0.3125 µM
  NPI (Mtb growth in J774 cells), average: -7.245%
[2]; 0.625 µM
  NPI (Mtb growth in J774 cells), average: 7.86%
[2]; 1.25 µM
  NPI (Mtb growth in J774 cells), average: -0.385%
[2]; 2.5 µM
  NPI (Mtb growth in J774 cells), average: 11.205%
[2]; 5 µM
  NPI (Mtb growth in J774 cells), average: 9.965%
[2]; 10 µM
  NPI (Mtb growth in J774 cells), average: 21.35%
[2]; 20 µM
  NPI (Mtb growth in J774 cells), average: 48.15%
[2]
  inhibition at 10 µM: 21.4 ± 7.7%
  inhibition at 20 µM: 48.2 ± 1.5%
[3]
  activity at 10 µM: 110 ± 7.2%
  activity at 20 µM: 150 ± 12%

## CCCSc1ncc(CN2CCN(c3ncnc4[nH]cnc34)CC2)cn1 [C6 analog, CCCSC1=NC=C(CN2CCN(CC2)C2=NC=NC3=C2N=CN3)C=N1]
[1]; [4]
  activity at 10 µM: 153%
[1]; [5]
  activity at 10 µM: 124 ± 10.1%
[1]; pH 6.4, 250 mM NaCl, 6 days
  activity at 20 µM: 158 ± 6.1%
[2]; [6]
  NPI (Mtb growth in J774 cells), average: -6.22%
[2]; 0.15625 µM
  NPI (Mtb growth in J774 cells), average: 3.8025%
[2]; 0.3125 µM
  NPI (Mtb growth in J774 cells), average: 9.675%
[2]; 0.625 µM
  NPI (Mtb growth in J774 cells), average: 16.75%
[2]; 1.25 µM
  NPI (Mtb growth in J774 cells), average: 32.05%
[2]; 2.5 µM
  NPI (Mtb growth in J774 cells), average: 36.55%
[2]; 5 µM
  NPI (Mtb growth in J774 cells), average: 46.75%
[2]; 10 µM
  NPI (Mtb growth in J774 cells), average: 41.15%
[2]; 20 µM
  NPI (Mtb growth in J774 cells), average: 53.2%
[2]
  inhibition at 10 µM: 41.2 ± 0.6%
  inhibition at 20 µM: 53.2 ± 1.6%
[3]
  activity at 10 µM: 151 ± 6.4%
  activity at 20 µM: 154 ± 8.1%

## Cc1c(Cl)cccc1S(=O)(=O)Nc1nn(C(C)(C)C)cc1C#N [RU-0208737, CC1=C(C=CC=C1Cl)S(=O)(=O)NC1=NN(C=C1C#N)C(C)(C)C]
[1]; [4]
  activity at 10 µM: 47.8%
[1]; [5]
  activity at 10 µM: 53.8 ± 2.8%
[1]; pH 6.4, 250 mM NaCl, 6 days
  activity at 20 µM: 40.2 ± 8.5%
[2]
  inhibition at 10 µM: 9.6 ± 0.7%
  inhibition at 20 µM: 20.9 ± 6.9%
[3]
  activity at 10 µM: 50.8 ± 1.7%
  activity at 20 µM: 84.4 ± 13.1%

## COc1ccc(NCc2ccc(OC)c(Br)c2)cn1 [RU-0270711, COC1=NC=C(NCC2=CC(Br)=C(OC)C=C2)C=C1]
[1]; [4]
  activity at 10 µM: 162%
[1]; [5]
  activity at 10 µM: 135 ± 4%
[1]; pH 6.4, 250 mM NaCl, 6 days
  activity at 20 µM: 292 ± 6.7%
[3]
  activity at 10 µM: 227 ± 8.7%
  activity at 20 µM: 603 ± 10.5%

## Cc1ccc(-n2nc(C)c3c(=O)[nH]c(C(F)(F)F)nc32)cc1 [RU-0271306, CC1=NN(C2=C1C(=O)NC(=N2)C(F)(F)F)C1=CC=C(C)C=C1]
[1]; [4]
  activity at 10 µM: 40.8%
[1]; [5]
  activity at 10 µM: 30.6 ± 2.4%
[1]; pH 6.4, 250 mM NaCl, 6 days
  activity at 20 µM: 36.6 ± 3.4%
[3]
  activity at 10 µM: 37.3 ± 1.3%
  activity at 20 µM: 11.5 ± 4.6%

## O=S(=O)(Nc1c(F)cccc1F)c1c(Cl)cccc1Cl [RU-0271471, FC1=CC=CC(F)=C1NS(=O)(=O)C1=C(Cl)C=CC=C1Cl]
[1]; [4]
  activity at 10 µM: 26%
[1]; [5]
  activity at 10 µM: 46.1 ± 5.6%
[1]; pH 6.4, 250 mM NaCl, 6 days
  activity at 20 µM: 25.7 ± 1.9%
[3]
  activity at 10 µM: 32.2 ± 2%
  activity at 20 µM: 13.8 ± 3.7%

## O=c1[nH]c(SCC2OCCc3ccccc32)nc2[nH]ncc12 (centres unmarked) [RU-0271878, O=C1NC(SCC2OCCC3=C2C=CC=C3)=NC2=C1C=NN2]
[1]; [4]
  activity at 10 µM: 43.3%
[1]; [5]
  activity at 10 µM: 63.4 ± 5.5%
[1]; pH 6.4, 250 mM NaCl, 6 days
  activity at 20 µM: 24.3 ± 3.8%
[3]
  activity at 10 µM: 57.7 ± 7%
  activity at 20 µM: 24.9 ± 3.6%

## CC(NC(=O)C1Cc2cc(Cl)ccc2O1)c1ccc(F)c(F)c1 (centres unmarked) [RU-0272361, CC(NC(=O)C1CC2=C(O1)C=CC(Cl)=C2)C1=CC(F)=C(F)C=C1]
[1]; [4]
  activity at 10 µM: 162%
[1]; [5]
  activity at 10 µM: 152 ± 9%
[1]; pH 6.4, 250 mM NaCl, 6 days
  activity at 20 µM: 215 ± 14%
[3]
  activity at 10 µM: 83.2 ± 14.8%
  activity at 20 µM: 107 ± 4.9%

## CC(NC(=O)C1Cc2ccccc2O1)c1ccc(Cl)s1 (centres unmarked) [RU-0272776, CC(NC(=O)C1CC2=C(O1)C=CC=C2)C1=CC=C(Cl)S1]
[1]; [4]
  activity at 10 µM: 231%
[1]; [5]
  activity at 10 µM: 170 ± 3.6%
[1]; pH 6.4, 250 mM NaCl, 6 days
  activity at 20 µM: 192 ± 26.2%
[3]
  activity at 10 µM: 88.5 ± 5.6%
  activity at 20 µM: 105 ± 5.5%

## Cc1ccc(C(C)NC(=O)Nc2ccc(C#N)c(Cl)c2)o1 (centres unmarked) [RU-0272807, CC(NC(=O)NC1=CC(Cl)=C(C=C1)C#N)C1=CC=C(C)O1]
[1]; [4]
  activity at 10 µM: 160%
[1]; [5]
  activity at 10 µM: 113 ± 12.8%
[1]; pH 6.4, 250 mM NaCl, 6 days
  activity at 20 µM: 133 ± 5.6%
[3]
  activity at 10 µM: 90.5 ± 6.1%
  activity at 20 µM: 128 ± 12%
